According to US8835134B2, “Cycloastragenol monoglucoside, preparation, pharmaceutical composition and application thereof” (Tianjin Institute of Pharmaceutical Research, priority 2007, dated 2014):

System: anesthetized open-chest dogs
Test: Hemodynamics of anesthetized open-chest dogs, intravenous infusion
Format: in vivo, mongrel dogs
Details: 0.3 mg/kg iv
Protocol: The animals were anesthetized by intravenous injection of 30 mg/kg sodium pentobarbital, tracheally intubated, and mechanically ventilated with positive air pressure. Left thoracotomy was performed through the fourth intercostal space and the heart was suspended in a pericardial cradle, the aortic root was isolated and a probe of blood flow meter (12 or 14 mm in diameter) was fixed to measure the aortic blood flow as a representation of cardiac output (CO), the circumflex branch of left coronary artery was isolated and a probe of blood flow meter (2 or 2.5 mm in diameter) was fixed to measure the coronary blood flow (CBF). A polyethylene catheter filled with heparin physiological saline was inserted through cardiac apex into the left ventricle to measure the left ventricular pressure (LVP) and left ventricular end-diastolic pressure (LVEDP), Peak positive and peak negative first derivatives of the LVP (+ LVdp/dt and − LVdp/dt) were calculated with the Acknowledge software. The systolic blood pressure (SBP), diastolic blood pressure (DBP) and mean arterial pressure (MAP) were measured by polyethylene catheter via the femoral artery, ECG □ was measured by a AC-601G ECG amplifier. The above-mentioned analog signal was input into a data acquisition workstation (MP100, BIOPAC Systems, USA) to a computer running Acknowledge (version 3.7.1).
After surgery, various indexes before administration were recorded until the indexes were stable, and then intravenous infusion administration was conducted. Thirty dogs were divided into five groups (six dogs in each group), the experiment groups were given 0.15, 0.3, 0.6 mg/kg of ASP-[…] respectively, the normal control group was given 1 ml/kg of solvent, and the positive control group was given 0.3 mg/kg of astragaloside IV. The delivery volumes were 15 ml for each dog was and the delivery velocity was 1 ml/min. The indexes were recorded at 5, 10, 15, 20, 30, 45, 60, 90 and 120 mins after drug administration. At the end of experiment, the hearts were excised and weighted. The myocardial blood flow for per hectogram (CF), coronary resistance (CR), cardiac index (CI), left ventricular work (LVW) and total peripheral resistance (TPR) were calculated according to the following formulae: CF=CBF×[…]/heart weight CR=MAP/CF CI=CO/0.11×(body weight)^2/3 LVW=CO×(MAP−5)×1.052×0.0136 TPR=MAP×79.92/CO
Data are expressed as mean±SD ( x±s), the paired t-test was used to compare the significance between before and after administration, the unpaired t-test was adopted for comparison between groups.

For `CC(C)(O)[C@@H]1CC[C@](C)([C@H]2[C@@H](O)C[C@@]3(C)[C@@H]4C[C@H](O[C@@H]5O[C@H](CO)[C@@H](O)[C@H](O)[C@H]5O)[C@H]5C(C)(C)[C@@H](O[C@@H]6OC[C@@H](O)[C@H](O)[C@H]6O)CC[C@@]56C[C@@]46CC[C@]23C)O1` [astragaloside IV, reference compound], the “+LVdp/dtmax” value was “significantly increased”, the “CO, CI and TPR” value was “no significant effect” and the LVEDP was “significantly decreased”. For the same compound, the “LVSP, LVW and −LVdp/dtmax” value was “no significant change”, the CF (5 min after administration) was 57.2 ± 14.0 ml/min/100 g and the “CF change vs before administration” value (5 min after administration) was “(0.2 ± 3.5) ml/min/100 g”. The CI (5 min after administration) was 2.20 ± 0.59 L/min/m^2, the “CI change vs before administration” value (5 min after administration) was “(0.06 ± 0.10) L/min/m^2” and the CO (5 min after administration) was 1.23 ± 0.36 L/min. The “CO change vs before administration” value (5 min after administration) was “(0.03 ± 0.05) L/min”, the CR (5 min after administration) was 1.36 ± 0.47 mmHg/ml/min/100 g and the “CR change vs before administration” value (5 min after administration) was “(−0.05 ± 0.07) mmHg/ml/min/100 g”. The LVEDP (5 min after administration) was 1.6 ± 1.4 mmHg, the “LVEDP change vs before administration” value (5 min after administration) was “(−0.80 ± 0.81) mmHg” and the LVP (5 min after administration) was 104 ± 10 mmHg. For the same compound, the “LVP change vs before administration” value (5 min after administration) was “(1.1 ± 6.5) mmHg”, the LVW (5 min after administration) was 1.22 ± 0.47 kg · m and the “LVW change vs before administration” value (5 min after administration) was “(0.01 ± 0.05) kg · m”. For the same compound, the TPR (5 min after administration) was 5046 ± 1572 dyn · s/cm^5, the “TPR change vs before administration” value (5 min after administration) was “(−178 ± 384) dyn · s/cm^5” and the dp/dt (5 min after administration) was 1082 ± 176 mmHg/s. For the same compound, the “dp/dt change vs before administration” value (5 min after administration) was “(27 ± 75) mmHg/s”, the “−dp/dt” value (5 min after administration) was −878 ± 179 mmHg/s and the “−dp/dt change vs before administration” value (5 min after administration) was “(−43 ± 104) mmHg/s”. For the same compound, the CF (10 min after administration) was 59.0 ± 20.5 ml/min/100 g, the “CF change vs before administration” value (10 min after administration) was “(2.0 ± 6.5) ml/min/100 g” and the CI (10 min after administration) was 2.21 ± 0.52 L/min/m^2. For the same compound, the “CI change vs before administration” value (10 min after administration) was “(0.07 ± 0.08) L/min/m^2”, the CO (10 min after administration) was 1.24 ± 0.32 L/min and the “CO change vs before administration” value (10 min after administration) was “(0.04 ± 0.05) L/min”. For the same compound, the CR (10 min after administration) was 1.39 ± 0.45 mmHg/ml/min/100 g, the “CR change vs before administration” value (10 min after administration) was “(−0.01 ± 0.12) mmHg/ml/min/100 g” and the LVEDP (10 min after administration) was 1.7 ± 1.3 mmHg. For the same compound, the “LVEDP change vs before administration” value (10 min after administration) was “(−0.73 ± 0.54) mmHg”, the LVP (10 min after administration) was 105 ± 10 mmHg and the “LVP change vs before administration” value (10 min after administration) was “(2.5 ± 11.7) mmHg”. The LVW (10 min after administration) was 1.26 ± 0.39 kg · m, the “LVW change vs before administration” value (10 min after administration) was “(0.05 ± 0.13) kg · m” and the TPR (10 min after administration) was 5162 ± 1495 dyn · s/cm^5. The “TPR change vs before administration” value (10 min after administration) was “(−62 ± 517) dyn · s/cm^5”, the dp/dt (10 min after administration) was 1141 ± 136 mmHg/s and the “dp/dt change vs before administration” value (10 min after administration) was “(86 ± 61) mmHg/s”. For the same compound, the “−dp/dt” value (10 min after administration) was −882 ± 163 mmHg/s, the “−dp/dt change vs before administration” value (10 min after administration) was “(−46 ± 118) mmHg/s” and the CF (15 min after administration) was 57.0 ± 22.3 ml/min/100 g. The “CF change vs before administration” value (15 min after administration) was “(0.0 ± 7.2) ml/min/100 g”, the CI (15 min after administration) was 2.16 ± 0.51 L/min/m^2 and the “CI change vs before administration” value (15 min after administration) was “(0.02 ± 0.07) L/min/m^2”. For the same compound, the CO (15 min after administration) was 1.21 ± 0.30 L/min, the “CO change vs before administration” value (15 min after administration) was “(0.01 ± 0.04) L/min” and the CR (15 min after administration) was 1.46 ± 0.50 mmHg/ml/min/100 g. The “CR change vs before administration” value (15 min after administration) was “(0.06 ± 0.15) mmHg/ml/min/100 g”, the LVEDP (15 min after administration) was 1.0 ± 1.2 mmHg and the “LVEDP change vs before administration” value (15 min after administration) was “(−1.40 ± 0.54) mmHg”. The LVP (15 min after administration) was 103 ± 12 mmHg, the “LVP change vs before administration” value (15 min after administration) was “(−0.3 ± 12.2) mmHg” and the LVW (15 min after administration) was 1.22 ± 0.35 kg · m. The “LVW change vs before administration” value (15 min after administration) was “(0.01 ± 0.16) kg · m”, the TPR (15 min after administration) was 5319 ± 1695 dyn · s/cm^5 and the “TPR change vs before administration” value (15 min after administration) was “(95 ± 662) dyn · s/cm^5”. For the same compound, the dp/dt (15 min after administration) was 1167 ± 157 mmHg/s, the “dp/dt change vs before administration” value (15 min after administration) was “(112 ± 31) mmHg/s” and the “−dp/dt” value (15 min after administration) was −847 ± 141 mmHg/s. The “−dp/dt change vs before administration” value (15 min after administration) was “(−12 ± 124) mmHg/s”, the CF (20 min after administration) was 59.1 ± 21.2 ml/min/100 g and the “CF change vs before administration” value (20 min after administration) was “(2.1 ± 7.3) ml/min/100 g”. The CI (20 min after administration) was 2.15 ± 0.44 L/min/m^2, the “CI change vs before administration” value (20 min after administration) was “(0.00 ± 0.10) L/min/m^2” and the CO (20 min after administration) was 1.20 ± 0.27 L/min. For the same compound, the “CO change vs before administration” value (20 min after administration) was “(0.00 ± 0.06) L/min”, the CR (20 min after administration) was 1.37 ± 0.42 mmHg/ml/min/100 g and the “CR change vs before administration” value (20 min after administration) was “(−0.03 ± 0.16) mmHg/ml/min/100 g”. The LVEDP (20 min after administration) was 1.0 ± 1.1 mmHg, the “LVEDP change vs before administration” value (20 min after administration) was “(−1.46 ± 0.68) mmHg” and the LVP (20 min after administration) was 104 ± 11 mmHg. For the same compound, the “LVP change vs before administration” value (20 min after administration) was “(1.2 ± 16.2) mmHg”, the LVW (20 min after administration) was 1.2 ± 0.31 kg · m and the “LVW change vs before administration” value (20 min after administration) was “(−0.01 ± 0.22) kg · m”. For the same compound, the TPR (20 min after administration) was 5203 ± 1464 dyn · s/cm^5, the “TPR change vs before administration” value (20 min after administration) was “(−21 ± 735) dyn · s/cm^5” and the dp/dt (20 min after administration) was 1165 ± 112 mmHg/s. The “dp/dt change vs before administration” value (20 min after administration) was “(110 ± 67) mmHg/s”, the “−dp/dt” value (20 min after administration) was −875 ± 105 mmHg/s and the “−dp/dt change vs before administration” value (20 min after administration) was “(−39 ± 142) mmHg/s”. The CF (30 min after administration) was 57.8 ± 16.6 ml/min/100 g, the “CF change vs before administration” value (30 min after administration) was “(0.8 ± 3.2) ml/min/100 g” and the CI (30 min after administration) was 2.08 ± 0.48 L/min/m^2. For the same compound, the “CI change vs before administration” value (30 min after administration) was “(−0.07 ± 0.17 ^ L/min/m^2”, the CO (30 min after administration) was 1.16 ± 0.29 L/min and the “CO change vs before administration” value (30 min after administration) was “(−0.04 ± 0.09) L/min”. For the same compound, the CR (30 min after administration) was 1.41 ± 0.47 mmHg/ml/min/100 g, the “CR change vs before administration” value (30 min after administration) was “(0.00 ± 0.13) mmHg/ml/min/100 g” and the LVEDP (30 min after administration) was 1.0 ± 1.4 mmHg. For the same compound, the “LVEDP change vs before administration” value (30 min after administration) was “(−1.44 ± 0.90) mmHg”, the LVP (30 min after administration) was 102 ± 11 mmHg and the “LVP change vs before administration” value (30 min after administration) was “(−0.7 ± 13.7) mmHg”. For the same compound, the LVW (30 min after administration) was 1.19 ± 0.40 kg · m and the “LVW change vs before administration” value (30 min after administration) was “(−0.02 ± 0.15) kg · m”.
